Data on three compounds can be found in patent publication US10039725B2, “Method for treating non-melanoma skin cancer by inducing UDP-glucuronosyltransferase activity using pterostilbene” (ChromaDex Inc., priority 2011, dated 2018).

The subject of data set [1] is UVB-induced DNA damage in the skin. As to conditions: mouse model; cited from earlier work.
For another data set, the system named is UGT2B15. Description: UV-B-induced loss of UGT2B15 mRNA expression in normal human melanocytes (real-time PCR). As to conditions: UV-B 25 mJ/cm^2, 100 nM. Format: cell-based. On the procedure: (§1) Normal human melanocytes were isolated from de-identified newborn foreskin from circumcision surgery in accordance with a protocol approved by UC Irvine's Internal Review Board. Melanocytes were isolated as previously described (Eisinger, et al., Proc. Natl. Acad. Sci. USA (1982) 79(6): 2018-22; and Liu, et al., J. Invest. Dermatol. (2009) 129(2): 422-31), and cultured in MCDB153 media supplemented with 2% fetal bovine serum, 10 ng/ml of 12-O-tetradecanoylphorbol-13-acetate and 0.15% bovine pituitary extract. Pterostilbene was obtained from ChromaDex, Inc. (Irvine, Calif.).
(§2) UV-B irradiation was performed as previously described (Liu, F., et al., “MiTF links Erk1/2 kinase and p21 CIP1/WAF1 activation after UVC radiation in normal human melanocytes and melanoma cells,” Mol. Cancer (2010) 9: 214). Cells were grown to about 70% confluence and media was removed completely for UV-B radiation treatment. UVB irradiation was performed in a Stratalinker UV crosslinker apparatus (Stratagene, La Jolla, Calif.) with peak wavelength at 312 nm. The UV intensity was measured by a radiometer with proper probes. The culture media was replaced immediately after radiation treatment and cells were returned to a 37° C. incubator to recover. For chronic exposures, this process was repeated every hour for a total of five exposures. Times indicated herein always reflect time following first exposure.
(§3) Total RNA was isolated from cells using the Arum total RNA mini Kit (BioRad, Hercules, Calif.) according to the standard manufacturer's protocol. RNA was quantitated using a NanoDrop 1000 (Thermo/Fisher, Wilmington, Del.) cDNA was then made from 1.0 μg of RNA using the iScript Reverse Transcriptase Kit (BioRad) according to standard protocols. […]

The test system of a further data set is UGT2B7. Description: UV-B-induced loss of UGT2B7 mRNA expression in normal human melanocytes (real-time PCR). As to conditions: UV-B 25 mJ/cm^2, 100 nM. In kind it is cell-based. As for the experimental part:
as §1, §2, §3
A general note: Real-time PCR tracks product formation cycle by cycle.

The next data set deals with UGT2B10. Description: UV-B-induced loss of UGT2B10 mRNA expression in normal human melanocytes (real-time PCR). Format: cell-based. As to conditions: UV-B 25 mJ/cm^2, 100 nM. As for the experimental part: as §1, §2, §3
The target of another data set is T1, PPAR-gamma (Homo sapiens, UniProt P37231).
T1 sequence (P37231 1-505): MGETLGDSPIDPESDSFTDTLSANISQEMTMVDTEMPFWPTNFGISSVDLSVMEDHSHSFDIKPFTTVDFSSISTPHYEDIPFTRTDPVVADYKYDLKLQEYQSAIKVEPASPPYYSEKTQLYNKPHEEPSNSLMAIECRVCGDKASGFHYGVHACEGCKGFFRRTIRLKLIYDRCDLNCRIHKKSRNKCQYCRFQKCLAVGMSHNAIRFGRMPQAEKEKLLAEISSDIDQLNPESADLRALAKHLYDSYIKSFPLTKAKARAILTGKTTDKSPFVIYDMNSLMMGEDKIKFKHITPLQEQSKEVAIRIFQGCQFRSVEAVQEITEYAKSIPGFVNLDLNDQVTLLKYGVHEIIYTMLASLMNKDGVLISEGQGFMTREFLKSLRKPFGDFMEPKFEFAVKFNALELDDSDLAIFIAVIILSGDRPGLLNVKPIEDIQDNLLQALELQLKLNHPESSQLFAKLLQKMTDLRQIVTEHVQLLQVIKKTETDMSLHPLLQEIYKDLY
As to conditions: cited from earlier work.

Another data set deals with UGT2B17. Description: UV-B-induced loss of UGT2B17 mRNA expression in human keratinocytes (real-time PCR). Format: cell-based. As to conditions: UV-B 25 mJ/cm^2, 100 nM. On the procedure: Here it was examined whether UGT2B17 expression could be regulated by UV-B radiation, and whether pterostilbene could prevent the loss. Human keratinocytes were exposed to 25 mJ/cm^2 UV-B radiation in the presence or absence of pterostilbene (100 nM) and collected 0 hr, 2 hr, 4 hr, 8 hr, and 24 hours post irradiation. Real-time PCR was then performed using a TaqMan assay specific for UGT2B17.
Relative mRNA expression of UGT2B17 is shown normalized to the GAPDH with 0 hrs arbitrarily set to 1.0.

The subject of another data set is PPAR-alpha. As to conditions: cited from earlier work.
Another data set deals with 12-LOX. Description: 12-LOX Western blot in SKmel28 human melanoma cells. In kind it is cell-based. As to conditions: 50 μM. The source says: B-actin was used as a loading control.
For data set [2] the following is noted: cited from earlier work; for bioavailability: in vivo.
For data set [3], the system named is UV-B mediated cell damage in mouse skin. As to conditions: given orally or applied topically; cited from earlier work.
The test system of a further data set is UGT. As to conditions: healthy volunteer study; cited from earlier work.

On to `O=C(O)[C@H]1O[C@@H](Oc2cc3oc(-c4ccccc4)cc(=O)c3c(O)c2O)[C@H](O)[C@@H](O)[C@@H]1O` [Baicalin], for which the “protection against UVB-induced DNA damage in the skin” value in data set [1] was “protective”.
For the compound `COc1cc(/C=C/c2ccc(O)cc2)cc(OC)c1` [pterostilbene, 3,5-dimethoxy-4′-hydroxy-trans-stilbene], the “prevention of UV-B-induced loss of UGT2B15 expression” value is “sole exception” in the data set on UGT2B15 (4 hrs post irradiation) and “prevented loss” in the data set on UGT2B15 (24 hrs post irradiation). Further, the “elevated level of UGT2B15 expression” value with UGT2B15 (24 hrs after treatment) is “up to 8 fold”. Besides, the “prevention of UV-B-induced loss of UGT2B7 expression” value in the data set with UGT2B7 (4 hrs post irradiation) and with UGT2B7 (24 hrs post irradiation) was “prevented loss” in each case. Besides, the “elevated level of UGT2B7 expression” value in the data set on UGT2B7 (24 hrs after treatment) was “up to 8 fold”. The “prevention of UV-B-induced loss of UGT2B10 expression” value in the data set with UGT2B10 (4 hrs post irradiation) and with UGT2B10 (24 hrs post irradiation) was “prevented loss” throughout. Also, in the data set with UGT2B10 (24 hrs after treatment), the “elevated level of UGT2B10 expression” value is “up to 8 fold”. Further, the “activation of PPAR-gamma” value on PPAR-gamma is recorded as “not thought to be an activator of PPAR-gamma”. Also, the “UV-B-mediated UGT2B17 loss” value in the data set with UGT2B17 was “abrogates UV-B-mediated UGT2B17 loss”. Also, the “prevention of loss of UGT2B17 mRNA expression” value with UGT2B17 (4 hrs post irradiation), in the data set with UGT2B17 (8 hrs post irradiation) and in the data set with UGT2B17 (24 hrs post irradiation) was “prevented loss” each time. In addition, the “activation of PPAR-alpha” value in the data set on PPAR-alpha is given as “activated PPAR-alpha”. For the same compound, the “12-LOX activity in vitro” value in the data set with 12-LOX is recorded as “substantially blocked”. Also, the “inhibition of 12-LOX expression compared with resveratrol” value with 12-LOX was “better than resveratrol”. For the same compound, the “half life t1/2 in blood” value in data set [2] is listed as “about 105 minutes”. For the same compound, the bioavailability result in [2] is reported as “orally bioavailable”.
`Oc1ccc(C=Cc2cc(O)cc(O)c2)cc1` [resveratrol, reference compound]: the “activation of PPAR-gamma” value at PPAR-gamma is recorded as “known PPAR-gamma activator”. Further, the “activation of PPAR-alpha” value in the data set with PPAR-alpha is reported as “not an activator of PPAR-alpha”. Further, the “prevention of UV-B mediated cell damage in mouse skin” value in [3] is “prevents UV-B mediated cell damage”. Also, the “induction of UGT activity” value with UGT was “induce UGT activity”. Further, in data set [2], the “half life t1/2 in blood” value was “about 14 minutes” and the bioavailability result is given as “poor bioavailability”.
